Results taken from US20100093716A1, “THERAPEUTIC METHODS USING WRN BINDING MOLECULES” (TRUSTEES OF BOSTON UNIVERSITY AND PRESIDENT AND FELLOWS OF …, priority 2006, published 2010).

Legend:
[1] = system: Histone H2AX (γH2AX); assay: γH2AX formation in human fibroblasts by immunofluorescent microscopy; format: cell-based; details: 48 hours
Description: Phosphorylation of Histone H2AX (forming γH2AX) is a marker for DNA damage in many settings and is also observed at telomeres when cells enter senescence. […] In both experiments, cells were incubated for 48 hours in the presence of SPOX-1 or 11mer T-oligo before processing for immunofluorescent microscopy.

[2] = system: ataxia telanglectasia mutated (ATM) kinase; assay: phosphorylation of ATM at serine 1981 in MM-AN cells, Western blot; format: cell-based, human; details: 40 μM, 48 hours
Description: Phosphorylated ATM in turn phosphorylates, and thus activates, p53. MM-AN cells were treated with diluent (medium or DMSO) alone, 40 μM of […] or 40 μM of SPOX-2 for 48 hours then collected and analyzed by Western blot using an antibody against ATM phosphoserine 1981.

[3] = system: MM-AN human melanoma cells; assay: apoptosis of MM-AN melanoma cells by FACS analysis (propidium iodide); format: cell-based; details: 10 μM, 40 μM and 80 μM
Description: Cultures of MM-AN human melanoma cells were treated with diluent (water or DMSO) alone, a T-oligo (16mer: 5′ GTTAGGGTTAGGGTTA 3′; SEQ ID NO: 2), SPOX-1, or SPOX-2 for 96 hours, then collected and processed for FACS analysis. One concentration of the T-oligo (20 μM) and three concentrations of each SPOX compound (10 μM, 40 μM and 80 μM) were tested. Each bar is the mean of triplicate dishes +/− standard error of the mean (SEM). FACS profiles are depicted at the top of the figure.
Cultures of MM-AN human melanoma cells were treated with diluent (water or DMSO) alone, 16mer T-oligo (SEQ ID NO: 2), SPOX-337, SPOX-338 or SPOX-343 for 72 hours, then collected and processed for FACS analysis. One concentration of the T-oligo (20 μM) and three concentrations of each SPOX compound (10 μM, 40 μM and 80 μM) were tested.

[4] = system: MCF-7 cells; assay: growth of MCF-7 breast cancer cells; format: cell-based, human; details: for growth of MCF-7 cells: 10 μM; for growth of MCF-7 cells / growth of MCF-7 cells at higher concentrations: 40 μM and 80 μM; for growth of MCF-7 cells at highest concentration: 80 μM, 3 days after plating; for growth arrest of malignant cells: summary statement; for growth of MCF-7 cells at higher concentrations: 8 days after plating
Description: The effect of SPOX compounds on growth and apoptosis of human breast cancer cells was tested using cultures of MCF-7 cells. The effect on cell growth was tested by plating 20,000 cells per 35 mm dish. Medium containing either diluent alone (DMSO), SPOX-1 or SPOX-2 (10 μM, 40 μM and 80 μM) was introduced at 96 hours and growth was determined 8 days after plating.
The effect of SPOX compounds on growth of human breast cancer cells was tested using cultures of MCF-7 cells. The effect on cell growth was tested by plating 20,000 cells per 35 mm dish. Medium containing either diluent (water or DMSO) alone, SPOX-337, SPOX-388, SPOX-343 (10 μM, 40 μM and 80 μM) or 16mer T-oligo (SEQ ID NO: 2) was introduced at 96 hours and growth was determined 3 days after plating.

[5] = system: human fibroblasts; assay: growth of newborn fibroblast cells; format: cell-based; details: 40 μM; growth determined 2 and 4 days after plating
Description: The effect of SPOX compounds on growth of human fibroblasts was tested using cultures of newborn fibroblast cells. Briefly, 20,000 cells were plated per 35 mm dish. Medium containing either diluent (dimethyl sulfoxide (DMSO)) alone, SPOX-1 (40 μM) SPOX-2 (40 μM) or 11mer T-oligo (SEQ ID NO:1) was introduced at 96 hours and growth was determined 2 and 4 days after plating.

[6] = system: MM-AN human melanoma cells; assay: growth of MM-AN melanoma cells; format: cell-based; details: 40 μM; 2, 3 and 4 days after treatment
Description: (§1) The effect of SPOX compounds on growth of human melanoma cells was tested using cultures of MM-AN cells. Briefly, 20,000 MM-AN cells were plated per 35 mm dish. Medium containing either diluent (DMSO) alone, SPOX-1 or SPOX-2 (40 μM) was introduced at 96 hours and growth was determined 2, 3 and 4 days after treatment.

[7] = system: Histone H2AX (γH2AX); assay: γH2AX formation in MCF-7 cells, western blot; format: cell-based, human; details: compared with 16mer T-oligo
Description: (§2) Phosphorylation of Histone H2AX (forming γH2AX) was assessed as a marker for DNA damage. Apoptosis was measured by western blot analysis to show cleavage of poly(ADP-ribose) polymerase (PARP). PARP is a substrate for caspase-3, an enzyme that mediates apoptosis, and thus cleavage of PARP by caspase-3 is indicative of ongoing apoptosis. […] Thus, both SPOX compounds induce apoptosis and formation of γH2AX, as a marker of DNA damage-like responses, in the MCF-7 breast cancer cell line.

[8] = system: poly(ADP-ribose) polymerase (PARP); assay: PARP cleavage in MCF-7 cells, western blot; format: cell-based, human; details: compared with TNF-α
Description: as §2

[9] = system: human skin explants; assay: melanogenesis in human skin explants (Fontana Masson stain, image analysis); format: cell-based; details: 80 uM; 24, 48 and 72 hours; positive control pTT 100 uM
Description: Normal facial skin removed from a person at the time of facelift was carefully cut into fragments approximately 5×5 mm. The fragments were placed in tissue culture dishes in standard culture medium, under conditions known to maintain the fragments in good condition, responsive to physiologic stimuli, for at least one week (Arad et al, FASEB J. Jul. 28, 2006. [Epub]). Fragments were arranged with at least 3 per 35 mm dish and after 48 hours, one dish each was provided with fresh medium containing diluent (DMSO) alone (Dil) or SPOX-1 or SPOX-2 each at 80 uM or thymidine dinucleotide (pTT) at 100 uM as a positive control. […] The 72 hour diluent (Dil) control sample was judged to be bacterially contaminated, affecting both the overall histology and the apparent melanin content, which based on earlier experiments would be expected to be the same as at 24 and 48 hours. All other samples were believed to be healthy and to accurately represent the response to treatment.

[10] = system: survivin; assay: survivin expression in H460 lung cancer cells; format: cell-based, human; details: for survivin expression at 80 μM: 24 hours; for survivin expression / survivin expression at 40 μM: 2 days, 40 μM; for survivin expression: 20 μM
Description: The ability of the SPOX compounds to inhibit expression of survivin, a member of the Inhibitor of Apoptosis Protein (IAP) family, was determined by treating H460 human lung cancer cells for two days with diluent (DMSO) alone, SPOX-1 (20 μM, 40 μM), SPOX-2 (20 μM, 40 μM) and T-oligo (16mer: 5′ GGTTGGTTGGTTGGTT 3′; SEQ ID NO: 3) (20 μM, 40 μM) or for 24 hours with SPOX-1 (80 μM) or SPOX-2 (80 μM). Following treatment, cells were collected, counted, and assayed for survivin expression. The results are depicted in FIG. 15.

[11] = system: H460 human lung cancer cells; assay: growth of H460 lung cancer cells; format: cell-based; details: 40 μM; 1, 2, 3 and 4 days after plating
Description: as §1, with “lung cancer” for “melanoma”, “H460” for “MM-AN”, “20,000H460” for “20,000 MM-AN”, “determined 1,” for “determined”, “plating.” for “treatment.”

[12] = system: p53; assay: p53 level in human fibroblasts, Western blot; format: cell-based; details: 48 hours, compared with diluent alone
Description: (§3) Human fibroblasts were treated with diluent (water or DMSO) alone, SPOX-1, SPOX-2, or 16mer T-oligo (SEQ ID NO: 2) for 48 hours after which total cellular proteins were harvested and Western blot analysis performed using anti-p53 and anti-p21 antibodies.

[13] = system: p21; assay: p21 level in human fibroblasts, Western blot; format: cell-based; details: 48 hours, compared with diluent alone
Description: as §3

[14] = system: WRN− U20S human osteosarcoma cells; assay: apoptosis of WRN− U20S cells by FACS analysis; format: cell-based; details: 96 hours
Description: (§4) Cultures of WRN+ and WRN− U20S human osteosarcoma cells were treated with either diluent (water or DMSO) alone, 16mer T-oligo (SEQ ID NO: 2) or SPOX-1 for 96 hours, then collected and processed for FACS analysis. One concentration of the 16mer T-oligo was tested, 20 μM, and three concentrations of SPOX-1 were tested, 10 μM, 40 μM and 80 μM.

[15] = system: WRN+ U20S human osteosarcoma cells; assay: apoptosis of WRN+ U20S cells by FACS analysis; format: cell-based; details: 96 hours; 10 μM, 40 μM and 80 μM
Description: as §4

[16] = growth determined 3 days after plating
[17] = growth determined 8 days after plating

11mer T-oligo: telomere homolog oligonucleotide, 11mer: 5′ GTTAGGGTTAG 3′; SEQ ID NO: 1 (listed as DNA, further chemistry not given here) [reference compound]
γH2AX expression [1]: induce γH2AX expression
phosphorylation of ATM at serine 1981 [2]: induce phosphorylation of ATM

C=CCOC(=O)C1C2C(=O)OC(c3ccccc3)C(c3ccccc3)N2C(c2ccc(O)cc2)C12C(=O)Nc1ccccc12 (centres unmarked) [SPOX-343]
induction of apoptosis ([3]; 72 hours): induced apoptosis with SPOX-337 and SPOX-343 having greatest effect
growth of MCF-7 cells [4, 16]: inhibited growth of MCF-7 cells in a dose-dependent manner
growth of MCF-7 cells at highest concentration [4]: nearly complete inhibition of growth
growth arrest of malignant cells [4]: retain the capability of arresting the growth of malignant cells

C=CCOC(=O)C1C2C(=O)OC(c3ccccc3)C(c3ccccc3)N2C(c2ccc(O)cc2)C12C(=O)Nc1ccc(I)cc12 (centres unmarked) [SPOX-2]
growth of human fibroblast cells [5]: inhibited growth
induction of apoptosis ([3]; 96 hours): induced apoptosis
growth of MM-AN cells [6]: inhibited growth
phosphorylation of ATM at serine 1981 [2]: induce phosphorylation of ATM
growth of MCF-7 cells [4, 17]: inhibited growth of MCF-7 cells in a dose-dependent manner
growth of MCF-7 cells at higher concentrations [4]: nearly complete inhibition of growth
phosphorylation of histone H2AX (γH2AX) [7]: cause phosphorylation of the histone protein H2AX
PARP cleavage [8]: cause PARP cleavage
melanogenesis (tanning) in human skin [9]: caused tanning, comparable to pTT
survivin expression at 80 μM [10]: reduced survivin expression to nearly undetectable levels
survivin expression [10]: dose-dependent reduction in survivin expression
survivin expression at 40 μM [10]: nearly undetectable
growth of H460 cells [11]: inhibited growth
level of p53 [12]: induced the level of p53
level of p21 [13]: induced the level of the p53-dependent downstream effector protein p21 to a similar degree as 16mer T-oligo

C=CCOC(=O)C1C2C(=O)OC(c3ccccc3)C(c3ccccc3)N2C(c2ccc(OCCO)cc2)C12C(=O)Nc1ccccc12 (centres unmarked) [SPOX-338]
induction of apoptosis ([3]; 72 hours): induced apoptosis
growth of MCF-7 cells [4, 16]: inhibited growth of MCF-7 cells in a dose-dependent manner
growth of MCF-7 cells at highest concentration [4]: nearly complete inhibition of growth
growth arrest of malignant cells [4]: retain the capability of arresting the growth of malignant cells

16mer T-oligo (SEQ ID NO: 2): telomere homolog oligonucleotide, 16mer: 5′ GTTAGGGTTAGGGTTA 3′; SEQ ID NO: 2 (listed as DNA, further chemistry not given here) [reference compound]
induction of apoptosis in WRN− versus WRN+ U20S cells ([14]; 20 μM): less effective in inducing apoptosis in WRN− than in U20S cells with intact WRN

C=CCOC(=O)C1C2C(=O)OC(c3ccccc3)C(c3ccccc3)N2C(c2ccc(OCCO)cc2)C12C(=O)Nc1ccc(I)cc12 (centres unmarked) [SPOX-337]
induction of apoptosis ([3]; 72 hours): induced apoptosis with SPOX-337 and SPOX-343 having greatest effect
growth of MCF-7 cells [4, 16]: inhibited growth of MCF-7 cells in a dose-dependent manner
growth of MCF-7 cells at highest concentration [4]: nearly complete inhibition of growth
growth arrest of malignant cells [4]: retain the capability of arresting the growth of malignant cells

C=CCOC(=O)C1C2C(=O)OC(c3ccccc3)C(c3ccccc3)N2C(c2ccc(O)cc2)C12C(=O)Nc1ccc(I)cc12 (centres unmarked) [SPOX-1]
γH2AX expression [1]: induce γH2AX expression
growth of human fibroblast cells [5]: inhibited growth
induction of apoptosis ([3]; 96 hours): induced apoptosis with SPOX-1 having a greater effect
growth of MM-AN cells [6]: inhibited growth
growth of MCF-7 cells [4, 17]: inhibited growth of MCF-7 cells in a dose-dependent manner
growth of MCF-7 cells at higher concentrations [4]: nearly complete inhibition of growth
phosphorylation of histone H2AX (γH2AX) [7]: cause phosphorylation of the histone protein H2AX
PARP cleavage [8]: cause PARP cleavage
induction of apoptosis in WRN+ U20S cells [15]: induced apoptosis in WRN+ U20S cells in a dose-dependent manner
induction of apoptosis in WRN− U20S cells ([14]; 40 μM and 80 μM): apoptosis was also seen
melanogenesis (tanning) in human skin [9]: caused tanning, comparable to pTT
survivin expression at 80 μM [10]: reduced survivin expression to nearly undetectable levels
survivin expression [10]: dose-dependent reduction in survivin expression
survivin expression at 40 μM [10]: nearly undetectable
growth of H460 cells [11]: inhibited growth
level of p53 [12]: induced the level of p53
level of p21 [13]: induced the level of the p53-dependent downstream effector protein p21 to a similar degree as 16mer T-oligo
